Legend:
[1] = system: T47D (PI3Kα H1047R mutant) cells; test: CellTiter-Glo 2.0 luminescent cell viability assay, 72 hours, T47D cells; type: cell-based; settings: Homo sapiens, T47D, 72 h, T47D (PI3Kα H1047R mutant) cells, CellTiter-Glo, approximately 72 hours; read-out: T47D (H1047R mutant) Viability IC50
Experimental: This Example illustrates that exemplary compounds of the present invention decrease the viability of cells.
(§1) The ability of a compound of Formula (I) to decrease the viability of cells was measured using CellTiter-Glo 2.0 (CTG) Luminescent Cell Viability Assay (#G9241) obtained from Promega (Madison, WI).
To prepare assay plates for viability assays, cells were trypsinized, resuspended in fresh media, and viable cells were counted utilizing trypan blue exclusion. T47D, SKBR3, or MKN1 cells were seeded at 1000 cells in 30 μl per well in a solid white flat bottom 384 cell culture plate (Perkin Elmer #6007680) and incubated at 37° C. overnight.
(§2) Assay day 1, cells were dosed using an Echo Liquid Handler (Beckman Coulter) with compounds at a 10 um starting concentration and serially diluted (1:4) for a total of 10 concentrations. Cells were incubated for approximately 72 hours with the compounds (solubilized in DMSO) at 37° C. After 72 hours of treatment, cell plates were equilibrated to room temperature before adding 15 μl of CTG to each well, plates were then covered in aluminum foil to protect from light, incubated at room temperature for 30 minutes on a microtiter plate shaker, and luminescence readings were collected using a CLARIOstar microplate reader (BMG Labtech, Germany). Percent of vehicle control values were plotted as log (inhibitor) vs. response-Variable slope (four parameters) for curve fitting and IC50 values were determined using XLfit.

[2] = system: SKBR3 (PI3Kα wild type) cells; test: CellTiter-Glo 2.0 luminescent cell viability assay, 72 hours, SKBR3 cells; type: cell-based; settings: Homo sapiens, SK-BR-3, 72 h, SKBR3 (PI3Kα wild type) cells, CellTiter-Glo, approximately 72 hours; read-out: SKBR3 (WT) Viability IC50
Experimental: as §1
To prepare assay plates for viability assays, cells were trypsinized, resuspended in fresh media, and viable cells were counted utilizing trypan blue exclusion.
as §2

Structure (SMILES) | IC50 [1] | IC50 [2]
Cc1cc([C@@H](C)Nc2ccccc2C(=O)O)c2nc(N3Cc4ccc(F)cc4C3)c(C)c(=O)n2c1 [Example 10-134, (R)-2-((1-(2-(5-fluoroisoindolin-2-yl)-3,7-dimethyl-4-oxo-4H-pyrido[1,2-a]pyrimidin-9-yl)ethyl)amino)benzoic acid] | 56.6 nM | > 10000 nM
Cc1cc([C@@H](C)Nc2ccccc2C(=O)O)c2nc(N3CCC(O)(C(C)C)C3)c(C)c(=O)n2c1 (stereo partly drawn) [Example 10-135, 2-(((1R)-1-(2-(3-hydroxy-3-isopropylpyrrolidin-1-yl)-3,7-dimethyl-4-oxo-4H-pyrido[1,2-a]pyrimidin-9-yl)ethyl)amino)benzoic acid] | 61 nM | > 10000 nM
Cc1cc([C@@H](C)Nc2ccccc2C(=O)O)c2nc(N3CC4CC3CC4C)c(C)c(=O)n2c1 (stereo partly drawn) [Example 10-136, 2-(((1R)-1-(3,7-dimethyl-2-(5-methyl-2-azabicyclo[2.2.1]heptan-2-yl)-4-oxo-4H-pyrido[1,2-a]pyrimidin-9-yl)ethyl)amino)benzoic acid] | 64.2 nM | > 10000 nM
Cc1cc([C@@H](C)Nc2ccccc2C(=O)O)c2nc(N3Cc4ccc(CO)cc4C3)c(C)c(=O)n2c1 [Example 10-137, (R)-2-((1-(2-(5-(hydroxymethyl)isoindolin-2-yl)-3,7-dimethyl-4-oxo-4H-pyrido[1,2-a]pyrimidin-9-yl)ethyl)amino)benzoic acid] | 69.5 nM | > 10000 nM
Cc1cc([C@@H](C)Nc2ccccc2C(=O)O)c2nc(N3CCC4(CCOC4)C3)c(C)c(=O)n2c1 (stereo partly drawn) [Example 10-138, 2-(((1R)-1-(3,7-dimethyl-4-oxo-2-(2-oxa-7-azaspiro[4.4]nonan-7-yl)-4H-pyrido[1,2-a]pyrimidin-9-yl)ethyl)amino)benzoic acid] | 71.5 nM | > 10000 nM
COc1cc2c(cc1OC)CN(c1nc3c([C@@H](C)Nc4ccccc4C(=O)O)cc(C)cn3c(=O)c1C)C2 [Example 10-139, (R)-2-((1-(2-(5,6-dimethoxyisoindolin-2-yl)-3,7-dimethyl-4-oxo-4H-pyrido[1,2-a]pyrimidin-9-yl)ethyl)amino)benzoic acid] | 74.3 nM | > 10000 nM
Cc1cc([C@@H](C)Nc2ccccc2C(=O)O)c2nc(N3CCC(c4ccccn4)C3)c(C)c(=O)n2c1 (stereo partly drawn) [Example 10-142, 2-(((1R)-1-(3,7-dimethyl-4-oxo-2-(3-(pyridin-2-yl)pyrrolidin-1-yl)-4H-pyrido[1,2-a]pyrimidin-9-yl)ethyl)amino)benzoic acid] | 80.1 nM | > 10000 nM
Cc1cc([C@@H](C)Nc2ccccc2C(=O)O)c2nc(N3CCC4(CCC(O)C4)CC3)c(C)c(=O)n2c1 (stereo partly drawn) [Example 10-143, 2-(((1R)-1-(2-(2-hydroxy-8-azaspiro[4.5]decan-8-yl)-3,7-dimethyl-4-oxo-4H-pyrido[1,2-a]pyrimidin-9-yl)ethyl)amino)benzoic acid] | 83.1 nM | > 10000 nM
Cc1cc([C@@H](C)Nc2ccccc2C(=O)O)c2nc(N3CC4(CO)CCCC3C4)c(C)c(=O)n2c1 (stereo partly drawn) [Example 10-144, 2-(((1R)-1-(2-(1-(hydroxymethyl)-6-azabicyclo[3.2.1]octan-6-yl)-3,7-dimethyl-4-oxo-4H-pyrido[1,2-a]pyrimidin-9-yl)ethyl)amino)benzoic acid] | 91.3 nM | > 10000 nM
Cc1cc([C@@H](C)Nc2ccccc2C(=O)O)c2nc(N3CC4CC4(C(F)(F)F)C3)c(C)c(=O)n2c1 (stereo partly drawn) [Example 10-145, 2-(((1R)-1-(3,7-dimethyl-4-oxo-2-(1-(trifluoromethyl)-3-azabicyclo[3.1.0]hexan-3-yl)-4H-pyrido[1,2-a]pyrimidin-9-yl)ethyl)amino)benzoic acid] | 98.5 nM | > 10000 nM
Cc1cc([C@@H](C)Nc2ccccc2C(=O)O)c2nc(N3CC4CCC(C3)C4O)c(C)c(=O)n2c1 (stereo partly drawn) [Example 10-146, 2-(((1R)-1-(2-(8-hydroxy-3-azabicyclo[3.2.1]octan-3-yl)-3,7-dimethyl-4-oxo-4H-pyrido[1,2-a]pyrimidin-9-yl)ethyl)amino)benzoic acid] | 100 nM | > 10000 nM
Cc1cc([C@@H](C)Nc2ccccc2C(=O)O)c2nc(N3CC4CCC3C(O)C4)c(C)c(=O)n2c1 (stereo partly drawn) [Example 10-147, 2-(((1R)-1-(2-(6-hydroxy-2-azabicyclo[2.2.2]octan-2-yl)-3,7-dimethyl-4-oxo-4H-pyrido[1,2-a]pyrimidin-9-yl)ethyl)amino)benzoic acid] | 107 nM | > 10000 nM
Cc1cc([C@@H](C)Nc2ccccc2C(=O)O)c2nc(N3CC45COCC4(COC5)C3)c(C)c(=O)n2c1 (stereo partly drawn) [Example 10-148, 2-(((R)-1-(2-((3aS,6aS)-1H,3H,4H-3a,6a-(methanooxymethano)furo[3,4-c]pyrrol-5(6H)-yl)-3,7-dimethyl-4-oxo-4H-pyrido[1,2-a]pyrimidin-9-yl)ethyl)amino)benzoic acid] | 108 nM | > 10000 nM
Cc1cc([C@@H](C)Nc2ccccc2C(=O)O)c2nc(N3CCC(C(C)(C)C)n4nccc43)c(C)c(=O)n2c1 (stereo partly drawn) [Example 11-13, 2-(((1R)-1-(2-(7-(tert-butyl)-6,7-dihydropyrazolo[1,5-a]pyrimidin-4(5H)-yl)-3,7-dimethyl-4-oxo-4H-pyrido[1,2-a]pyrimidin-9-yl)ethyl)amino)benzoic acid] | 324 nM | > 10000 nM
Cc1cc([C@@H](C)Nc2ccccc2C(=O)O)c2nc(N3CCC(c4ccccc4)C3)c(C)c(=O)n2c1 (stereo partly drawn) [Example 11-14, 2-(((1R)-1-(3,7-dimethyl-4-oxo-2-(3-phenylpyrrolidin-1-yl)-4H-pyrido[1,2-a]pyrimidin-9-yl)ethyl)amino)benzoic acid] | 233 nM | > 10000 nM
Cc1cc([C@@H](C)Nc2ccccc2C(=O)O)c2nc(N3Cc4nc(C)sc4C3)c(C)c(=O)n2c1 [Example 11-15, (R)-2-((1-(3,7-dimethyl-2-(2-methyl-4,6-dihydro-5H-pyrrolo[3,4-d]thiazol-5-yl)-4-oxo-4H-pyrido[1,2-a]pyrimidin-9-yl)ethyl)amino)benzoic acid] | 156 nM | > 10000 nM
Cc1cc([C@@H](C)Nc2ccccc2C(=O)O)c2nc(N3CC(c4ccccn4)C3)c(C)c(=O)n2c1 [Example 11-16, (R)-2-((1-(3,7-dimethyl-4-oxo-2-(3-(pyridin-2-yl)azetidin-1-yl)-4H-pyrido[1,2-a]pyrimidin-9-yl)ethyl)amino)benzoic acid] | 389 nM | > 10000 nM
Cc1ccc2c(c1)CN(c1nc3c([C@@H](C)Nc4ccccc4C(=O)O)cc(C)cn3c(=O)c1C)C2 [Example 11-17, (R)-2-((1-(3,7-dimethyl-2-(5-methylisoindolin-2-yl)-4-oxo-4H-pyrido[1,2-a]pyrimidin-9-yl)ethyl)amino)benzoic acid] | 796 nM | > 10000 nM
Cc1cc([C@@H](C)Nc2ccccc2C(=O)O)c2nc(N3CC(c4ccccc4)C3)c(C)c(=O)n2c1 [Example 11-18, (R)-2-((1-(3,7-dimethyl-4-oxo-2-(3-phenylazetidin-1-yl)-4H-pyrido[1,2-a]pyrimidin-9-yl)ethyl)amino)benzoic acid] | 416 nM | > 10000 nM
Cc1cc([C@@H](C)Nc2ccccc2C(=O)O)c2nc(N3Cc4ccccc4C3CO)c(C)c(=O)n2c1 (stereo partly drawn) [Example 11-19, 2-(((1R)-1-(2-(1-(hydroxymethyl)isoindolin-2-yl)-3,7-dimethyl-4-oxo-4H-pyrido[1,2-a]pyrimidin-9-yl)ethyl)amino)benzoic acid] | 173 nM | > 10000 nM

Source: patent US20260078120A1, “SUBSTITUTED PYRIDOPYRIMIDINONES” (MIRATI THERAPEUTICS, INC., priority 2022, published 2026)
